The source of these data is ChEMBL document CHEMBL1201862, “PubChem BioAssay data set” (2004).

SMILES strings stand for the structures. Calls of active or inactive are those of the source.

Test [1] has as its system HEK293. In words: HEK cell cytotoxicity by LDH release, dose response, cytotoxicity control for IDE activator project, fluorescence, HEK cells (AID 588440).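 Also: cytotoxicity by LDH release measuring loss of membrane integrity.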 It counts as functional, cell-based. Particulars: Homo sapiens. For orientation: Release of lactate dehydrogenase indicates damage to the cell membrane.
Test [2] addresses T1, Insulin-degrading enzyme (Homo sapiens, UniProt P14735).
T1 sequence (P14735 whole entry): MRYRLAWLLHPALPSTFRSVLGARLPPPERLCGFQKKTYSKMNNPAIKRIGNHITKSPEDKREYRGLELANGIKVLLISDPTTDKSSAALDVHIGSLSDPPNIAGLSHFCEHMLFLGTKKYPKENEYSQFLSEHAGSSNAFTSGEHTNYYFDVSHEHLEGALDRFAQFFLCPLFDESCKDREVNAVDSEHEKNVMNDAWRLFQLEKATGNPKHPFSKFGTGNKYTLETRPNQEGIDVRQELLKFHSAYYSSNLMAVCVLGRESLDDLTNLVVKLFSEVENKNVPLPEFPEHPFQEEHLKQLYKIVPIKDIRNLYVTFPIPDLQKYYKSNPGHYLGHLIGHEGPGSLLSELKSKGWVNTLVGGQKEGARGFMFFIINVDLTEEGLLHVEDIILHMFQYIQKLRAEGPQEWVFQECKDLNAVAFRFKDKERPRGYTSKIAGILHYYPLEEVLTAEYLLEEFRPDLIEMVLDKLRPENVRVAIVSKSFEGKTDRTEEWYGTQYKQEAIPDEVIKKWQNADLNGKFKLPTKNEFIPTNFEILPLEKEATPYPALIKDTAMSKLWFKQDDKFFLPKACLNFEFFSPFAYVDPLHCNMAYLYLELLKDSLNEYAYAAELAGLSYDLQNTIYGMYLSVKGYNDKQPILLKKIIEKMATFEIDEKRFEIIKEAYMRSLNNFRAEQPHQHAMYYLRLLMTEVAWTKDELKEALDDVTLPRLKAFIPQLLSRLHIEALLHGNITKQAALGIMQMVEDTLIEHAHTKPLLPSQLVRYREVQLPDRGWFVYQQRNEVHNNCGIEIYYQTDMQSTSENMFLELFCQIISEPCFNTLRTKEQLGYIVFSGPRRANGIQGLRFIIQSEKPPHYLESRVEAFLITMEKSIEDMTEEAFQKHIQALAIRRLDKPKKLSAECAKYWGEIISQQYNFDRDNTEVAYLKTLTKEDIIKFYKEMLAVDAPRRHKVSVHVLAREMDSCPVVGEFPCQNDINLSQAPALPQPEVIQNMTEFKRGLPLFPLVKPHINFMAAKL
The test can be described thus: activators of endogenous IDE in HEK cells, dose response, cell-based, fluorescence polarization (AID 588439). It counts as functional.

In test [3] the target is T1, Insulin-degrading enzyme. In words: activators of recombinant IDE enzyme, dose response, counter-screen for IDE activator project, biochemical, fluorescence polarization (AID 588681).
The test system of test [4] is HEK293. In words: optical interference in Abeta FP readout, dose response, artefact control for IDE activator project, biochemical, fluorescence polarization (AID 588442). Format: functional, cell-based. Particulars: Homo sapiens. A general note: In fluorescence polarisation assays a small probe gives low polarisation when free and higher when bound to something large.

Test [5] concerns the target Beta Lactamase (Pseudomonas aeruginosa, UniProt Q932Y6). The test can be described thus: beta-lactamase reporter inhibitor potency, dose response, artefact control for TLR9-MyD88 binding inhibitor project, BLA reporter cells, FRET fluorescence (AID 588341).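 Also: cell based assay in CHO-K1 cells stably expressing beta-lactamase.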 Format: cell-based.
Test [6] concerns CHO. The test can be described thus: cytotoxicity in TLR9-MyD88 CHO cells, dose response, cytotoxicity control for TLR9-MyD88 binding inhibitor project, cell-based, luminescence (AID 588339).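 Also: CHO cells stably coexpressing TLR9 and MyD88 fusions from primary screen; compound exposure lasted 48 hours before viability readout.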 Format: functional, hamster. The following applies: Cricetulus griseus.
Test [7] relates to Streptococcus sp. 'group A'. The test can be described thus: growth inhibition of control SK(-) GAS strain, dose response, counter-screen for streptokinase expression inhibitor project, luminescence, kanamycin, BacTiterGlo, confirmation (AID 1900). Format: functional, organism-based.
For test [8], the system named is Streptococcus. In words: Group A Streptococcus viability loss, dose response, counter-screen for streptokinase expression inhibitor project, luminescence, BacTiterGlo (AID 1915).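 Also: potency for reduction of bacterial viability or growth.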 It counts as functional, organism-based. For orientation: Counterscreens check selectivity or assay interference.
Test [9] deals with H9c2. The test can be described thus: cells. It counts as functional, cell-based. The following applies: Rattus norvegicus, H9c2, Myocardium.
The nature of test [10]: THP-1 cell cytotoxicity, dose response, cytotoxicity control for non-replicating M. tuberculosis project (AID 489025). It counts as functional.
The nature of test [11]: cells. Format: functional.
The target of test [12] is UDP-galactopyranose mutase (Mycobacterium tuberculosis, UniProt P9WIQ1). The test can be described thus: Inhibitors of Mycobacterium tuberculosis UDP-galactopyranose mutase (UGM) enzyme Measured in Biochemical System Using Plate Reader - 2105-02_Inhibitor_Dose_CherryPick_Activity. [Related pubchem assays (depositor defined):AID504439].
The target in test [13] is T2, Corticotropin-releasing factor receptor 2/Corticotropin-releasing factor-binding protein (Homo sapiens, UniProt P24387+Q13324).
T2 sequence (Q13324 whole entry): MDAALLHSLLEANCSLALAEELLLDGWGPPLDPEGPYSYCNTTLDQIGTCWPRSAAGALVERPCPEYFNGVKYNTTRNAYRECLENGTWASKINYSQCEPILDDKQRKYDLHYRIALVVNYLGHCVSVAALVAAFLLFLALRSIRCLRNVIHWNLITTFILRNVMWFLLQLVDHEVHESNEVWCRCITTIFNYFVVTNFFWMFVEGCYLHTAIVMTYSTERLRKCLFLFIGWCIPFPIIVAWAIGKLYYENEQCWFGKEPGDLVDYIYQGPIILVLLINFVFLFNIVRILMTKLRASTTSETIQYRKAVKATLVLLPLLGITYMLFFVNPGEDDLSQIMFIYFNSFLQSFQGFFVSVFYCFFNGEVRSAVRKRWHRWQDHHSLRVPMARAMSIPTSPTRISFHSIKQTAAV
T2 sequence (P24387 whole entry): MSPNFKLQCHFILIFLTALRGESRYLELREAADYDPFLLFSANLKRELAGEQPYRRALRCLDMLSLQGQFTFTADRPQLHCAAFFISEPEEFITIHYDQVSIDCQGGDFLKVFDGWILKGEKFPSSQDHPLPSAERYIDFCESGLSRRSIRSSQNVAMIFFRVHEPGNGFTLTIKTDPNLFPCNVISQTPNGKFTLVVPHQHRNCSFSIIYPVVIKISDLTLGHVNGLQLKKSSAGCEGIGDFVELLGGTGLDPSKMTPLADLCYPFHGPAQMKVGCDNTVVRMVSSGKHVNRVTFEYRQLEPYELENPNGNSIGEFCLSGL
The test can be described thus: activators of CRF receptor 2 with binding protein – uHTS hits, confirmation (AID 602473). It counts as functional. Particulars: read-out: EC50_Mean.

For test [14], the target named is T3, Heat shock factor protein 1 (Mus musculus, UniProt P38532).
T3 sequence (P38532 whole entry): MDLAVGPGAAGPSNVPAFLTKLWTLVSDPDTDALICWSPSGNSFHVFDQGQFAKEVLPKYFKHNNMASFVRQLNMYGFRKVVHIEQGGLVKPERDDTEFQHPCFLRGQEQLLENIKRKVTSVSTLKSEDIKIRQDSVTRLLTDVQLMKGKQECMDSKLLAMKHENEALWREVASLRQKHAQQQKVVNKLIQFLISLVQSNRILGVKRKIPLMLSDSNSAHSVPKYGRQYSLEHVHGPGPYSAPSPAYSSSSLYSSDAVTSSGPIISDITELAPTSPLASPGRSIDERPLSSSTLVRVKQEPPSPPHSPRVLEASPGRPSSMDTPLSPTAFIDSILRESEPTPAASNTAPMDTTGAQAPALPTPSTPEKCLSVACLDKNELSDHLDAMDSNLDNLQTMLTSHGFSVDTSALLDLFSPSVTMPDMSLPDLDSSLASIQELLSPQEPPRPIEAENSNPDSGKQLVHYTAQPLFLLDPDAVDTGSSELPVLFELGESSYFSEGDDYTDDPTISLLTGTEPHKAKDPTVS
The test can be described thus: inhibition of MG132-induced HSE-luciferase signal, confirmation, cell-based, NIH3T3, luminescence, dose retest (AID 2382).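 Also: NIH3T3 fibroblasts with HSF1-driven luciferase reporter stressed by proteasome inhibitor MG132; luminescence from HSF1-driven luciferase expression after 8 hours of MG132 stress.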 It counts as functional.

The test system of test [15] is BJ. The test can be described thus: cytotoxicity toward BJ-TERT fibroblasts, dose response, cell-based, RAS-independent, luminescence (AID 1933). Format: functional. Particulars: Homo sapiens.
Test [16] has as its target Heat shock protein HSP 90-alpha (Homo sapiens, UniProt P07900). The test can be described thus: Luminescence-based dose response biochemical high throughput screening assay for inhibitors of the Heat Shock Protein 90 (HSP90). [Related pubchem assays: 1831 (Summary AID.), 1846 (Confirmation screen.), 1789 (Primary screen.)].
Test [17] is described as follows: cytotoxicity toward DRD oncogenic fibroblasts, dose response, cell-based, non-viral oncogenic, luminescence (AID 1934). Format: functional. Particulars: Homo sapiens.
Test [18] has as its target Beta-galactosidase (Escherichia coli, UniProt Q8VNN2). The test can be described thus: PubChem AID 485352. Format: functional.
Test [19] concerns the target T4, Type-1 angiotensin II receptor (Homo sapiens, UniProt P30556).
T4 sequence (P30556 whole entry): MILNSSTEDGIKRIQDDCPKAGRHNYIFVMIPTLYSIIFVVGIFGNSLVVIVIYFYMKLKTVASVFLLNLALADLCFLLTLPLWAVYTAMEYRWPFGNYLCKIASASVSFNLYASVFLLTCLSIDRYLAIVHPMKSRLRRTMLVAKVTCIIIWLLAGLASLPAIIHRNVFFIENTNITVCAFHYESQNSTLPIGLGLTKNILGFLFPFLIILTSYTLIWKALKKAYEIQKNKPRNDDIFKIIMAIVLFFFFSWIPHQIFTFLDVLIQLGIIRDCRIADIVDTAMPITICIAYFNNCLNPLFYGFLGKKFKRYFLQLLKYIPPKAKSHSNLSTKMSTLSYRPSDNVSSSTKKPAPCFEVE
In words: AT1 receptor antagonists, dose response, selectivity assay for APJ receptor antagonist project, cell-based, uHTS hits (AID 463214).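 Also: antagonist potency against angiotensin II stimulated AT1 response.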 It counts as functional.

Test [20] concerns BJ. In words: cells. Particulars: Homo sapiens. Format: functional, cell-based.
Test [21] concerns BJ. The test can be described thus: cytotoxicity toward BJ-TERT-LT-ST fibroblasts, dose response, cell-based, RAS-independent, luminescence (AID 1935).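 Also: BJ fibroblasts immortalized with TERT plus LT and ST oncogenes.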 It counts as functional. The following applies: Homo sapiens.
Test [22] relates to BJ. In words: cytotoxicity toward Ras-transformed BJeLR fibroblasts, dose response, cell-based, alamar blue fluorescence, cherrypicked samples (AID 2631).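 Also: confirmatory dose-response assay in RAS-dependent BJ fibroblasts engineered with TERT, LT and ST, with cytotoxicity read by fluorescence.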 Format: functional. Particulars: Homo sapiens.

Beta Lactamase, sequence (Q932Y6 whole entry, the tested form may be a part): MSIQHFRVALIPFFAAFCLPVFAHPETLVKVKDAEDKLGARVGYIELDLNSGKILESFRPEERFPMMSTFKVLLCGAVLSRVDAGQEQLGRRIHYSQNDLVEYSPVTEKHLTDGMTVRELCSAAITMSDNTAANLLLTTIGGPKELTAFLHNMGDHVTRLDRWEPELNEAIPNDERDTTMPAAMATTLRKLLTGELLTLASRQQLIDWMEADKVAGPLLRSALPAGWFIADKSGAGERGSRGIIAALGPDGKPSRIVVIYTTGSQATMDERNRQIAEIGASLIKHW
Beta-galactosidase, sequence (Q8VNN2 whole entry): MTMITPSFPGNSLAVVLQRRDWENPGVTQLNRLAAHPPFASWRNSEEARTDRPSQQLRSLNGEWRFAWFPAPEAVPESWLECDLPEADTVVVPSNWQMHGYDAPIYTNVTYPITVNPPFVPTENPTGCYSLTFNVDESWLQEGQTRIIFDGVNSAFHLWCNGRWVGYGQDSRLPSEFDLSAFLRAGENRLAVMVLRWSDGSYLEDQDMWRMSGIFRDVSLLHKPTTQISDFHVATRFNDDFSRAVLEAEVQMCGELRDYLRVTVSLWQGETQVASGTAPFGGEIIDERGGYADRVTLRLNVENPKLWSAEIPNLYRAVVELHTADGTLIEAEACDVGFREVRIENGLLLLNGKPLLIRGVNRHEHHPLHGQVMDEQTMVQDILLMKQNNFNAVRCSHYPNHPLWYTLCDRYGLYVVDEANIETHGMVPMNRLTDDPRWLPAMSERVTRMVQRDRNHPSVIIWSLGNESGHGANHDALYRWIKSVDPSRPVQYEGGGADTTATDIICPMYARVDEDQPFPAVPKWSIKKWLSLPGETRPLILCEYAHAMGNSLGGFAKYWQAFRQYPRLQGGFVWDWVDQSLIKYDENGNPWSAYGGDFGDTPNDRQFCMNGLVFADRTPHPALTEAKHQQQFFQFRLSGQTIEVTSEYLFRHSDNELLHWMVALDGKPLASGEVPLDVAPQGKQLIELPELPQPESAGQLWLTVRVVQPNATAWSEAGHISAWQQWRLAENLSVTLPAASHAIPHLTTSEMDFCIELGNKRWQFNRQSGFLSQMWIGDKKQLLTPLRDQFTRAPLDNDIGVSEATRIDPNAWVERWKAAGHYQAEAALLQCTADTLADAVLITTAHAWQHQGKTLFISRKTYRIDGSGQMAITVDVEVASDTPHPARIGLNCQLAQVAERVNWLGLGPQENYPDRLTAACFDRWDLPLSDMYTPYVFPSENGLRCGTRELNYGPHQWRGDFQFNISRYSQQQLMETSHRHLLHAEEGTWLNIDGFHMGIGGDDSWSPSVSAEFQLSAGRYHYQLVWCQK
UDP-galactopyranose mutase, sequence (P9WIQ1 whole entry): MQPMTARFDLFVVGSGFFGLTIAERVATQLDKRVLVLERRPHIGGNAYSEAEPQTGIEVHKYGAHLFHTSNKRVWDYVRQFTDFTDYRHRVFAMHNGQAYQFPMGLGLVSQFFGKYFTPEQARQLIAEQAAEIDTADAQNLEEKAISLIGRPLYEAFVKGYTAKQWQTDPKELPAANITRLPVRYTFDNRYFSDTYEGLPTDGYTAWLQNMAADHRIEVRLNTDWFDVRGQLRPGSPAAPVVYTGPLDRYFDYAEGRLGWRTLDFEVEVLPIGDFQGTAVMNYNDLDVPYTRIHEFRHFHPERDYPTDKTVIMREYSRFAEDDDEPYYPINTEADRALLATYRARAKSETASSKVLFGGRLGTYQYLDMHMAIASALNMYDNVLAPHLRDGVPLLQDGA

One may read the IC50 as the concentration that gives 50% inhibition. Regarding `COCO/C=C(\NC(C)=O)c1ccccc1`, the IC50 in test [1] was > 89.3 µM (inactive). The EC50 is > 54.7 µM (inactive) in [2], > 54.7 µM (inactive) in test [3] and > 56 µM (inactive) in [4].
Regarding `Nc1ccc2c(C(F)(F)F)cc(=O)oc2c1`, the results for the IC50 in test [5] and in [6] were 4.77 µM (active) and > 49.7 µM (inactive), respectively.
The CC50 is the concentration that lowers cell viability or growth by half. As to `O=c1c(O)c(-c2cccs2)oc2ccc(Cl)cc12`, the IC50 was > 89.2 µM (inactive) in test [1], > 79 µM (inactive) in [9] and 13.8 µM (active) in test [11]. Further, the EC50 is > 54.7 µM (inactive) in [2]; 2.11 µM (active) in test [7]; > 54.7 µM (inactive) in test [3]; > 54.7 µM (inactive) in test [4]; 7.38 µM (active) in test [8]. In addition, in test [10], the CC50 was > 40 µM (active).
By AC50 is commonly meant the midpoint of the concentration-response curve, whichever way the signal moves. For `O=C(NC1CCCCC1)c1cccc2c1C(=O)c1ccc(N3CCC(Cc4ccccc4)CC3)cc1S2(=O)=O`, the AC50 in test [12] is 72.3 µM (active). For the same compound, the EC50 in [13] was 6.47 µM (active). The IC50 in test [5] is 3.87 µM (active); in [6] it was > 49.7 µM (inactive).
Take `COc1ccc(/C=C(\C#N)C(=O)Nc2cc(C)c(Cl)cc2OC)cc1O`: in test [1], the IC50 was 12.6 µM (inactive). Besides, the EC50 in test [2] is > 54.7 µM (inactive); in test [14], > 195 µM (not active); in test [3], > 54.7 µM (inactive); in test [4], > 55.9 µM (inactive).
On to `O=[N+]([O-])c1ccc(N=Nc2ncc[nH]2)cc1`, for which the EC50 in [14] is 8.49 µM (active); in [15], 5.4 µM (inconclusive); in test [17] it was 11.5 µM (inconclusive); in test [18] it was > 40 µM (inactive); in test [20], 2.43 µM (inconclusive); in test [21] it was > 150 µM (inconclusive). Further, the EC50 in test [22] was 14.8 µM (active). In addition, the IC50 in [16] is on record as 10.2 µM (not active); in test [19] it was 23.5 µM (not active).
